According to the NIST ThermoML archive (doi:10.1021/acs.jced.5b01043):
± gives the expanded uncertainty stated by the source.

Tests used:
[1] = wn = mass fraction of the nth substance listed; details: 100 kPa, Liquid, Vibrating tube method
[2] = refractive index (Na D-line) (dimensionless); wn = mass fraction of the nth substance listed; details: 100 kPa, Liquid, Standard Abbe refractometry

[Cl-].[Na+] [sodium chloride] + O
Details	mass density, [1] [kg/m3]	refractive index, [2]
288.15 K, w1 = 0.2631	1202.37 ± 0.69	1.381 ± 0.00032
298.15 K, w1 = 0.265	1197.1 ± 0.69	1.37938 ± 0.00031
308.15 K, w1 = 0.2666	1193.13 ± 0.69	1.37784 ± 0.00032

CCN(C=O)CC [N,N-diethylformamide] + O
298.15 K
Details	mass density, [1] [kg/m3]	refractive index, [2]
w1 = 0.009925	996.45 ± 0.11	1.33379 ± 0.00031
w1 = 0.04	995.04 ± 0.11	1.33758 ± 0.00031
w1 = 0.06998	993.7 ± 0.11	1.34136 ± 0.00032
w1 = 0.09919	992.49 ± 0.12	1.34512 ± 0.00032
w1 = 0.129	991.3 ± 0.12	1.34898 ± 0.00032
w1 = 0.16	989.97 ± 0.12	1.35302 ± 0.00032
w1 = 0.1897	988.8 ± 0.12	1.35684 ± 0.00032

CCN(C=O)CC [N,N-diethylformamide] + [Cl-].[K+]
Details	mass density, [1] [kg/m3]	refractive index, [2]
288.15 K, w2 = 0.0015	911.47 ± 0.27	1.43618 ± 0.00037
298.15 K, w2 = 0.0009	903.51 ± 0.25	1.43281 ± 0.00037
308.15 K, w2 = 0.0005	896.68 ± 0.24	1.42872 ± 0.00037

[Cl-].[Cs+] [cesium chloride] + O
288.15 K, w1 = 0.6406
Details	mass density [kg/m3]	refractive index
[1]	1893.82 ± 1.2	–
[2]	–	1.41772 ± 0.00032

[Cl-].[Rb+] [rubidium chloride] + O
Details	mass density, [1] [kg/m3]	refractive index, [2]
288.15 K, w1 = 0.4652	1482.6 ± 0.87	1.38751 ± 0.00032
298.15 K, w1 = 0.4823	1495.24 ± 0.88	1.38769 ± 0.00032
308.15 K, w1 = 0.5033	1520.16 ± 0.9	1.38939 ± 0.00032

CCN(C=O)CC [N,N-diethylformamide] + [Cl-].[Rb+]
Details	mass density, [1] [kg/m3]	refractive index, [2]
288.15 K, w2 = 0.0016	910.95 ± 0.28	1.43675 ± 0.00037
298.15 K, w2 = 0.0011	902.43 ± 0.25	1.43253 ± 0.00037
308.15 K, w2 = 0.0008	894.54 ± 0.25	1.42819 ± 0.00037

CCN(C=O)CC [N,N-diethylformamide] + [Cl-].[Na+]
Details	mass density, [1] [kg/m3]	refractive index, [2]
288.15 K, w2 = 0.0013	912.57 ± 0.26	1.43642 ± 0.00037
298.15 K, w2 = 0.0009	904.23 ± 0.25	1.43203 ± 0.00037
308.15 K, w2 = 0.0005	896.38 ± 0.24	1.42776 ± 0.00037

[Cl-].[K+] [potassium chloride] + O
Details	mass density, [1] [kg/m3]	refractive index, [2]
288.15 K, w1 = 0.2483	1169.18 ± 0.67	1.36809 ± 0.00032
298.15 K, w1 = 0.2668	1174.11 ± 0.68	1.36838 ± 0.00032
308.15 K, w1 = 0.2768	1184.11 ± 0.68	1.36932 ± 0.00032

CCN(C=O)CC [N,N-diethylformamide] + [Cl-].[Cs+]
288.15 K, w2 = 0.0013
Details	mass density [kg/m3]	refractive index
[1]	910.38 ± 0.26	–
[2]	–	1.43686 ± 0.00037
